How the values were obtained:
foxtail, giant = test: Test A preemergence; assay type: in vivo, Setaria faberii; details: preemergence
Outline: (§1)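 Scoring was visual, on a scale where 100 means complete control and 0 means no effect, comparing treated with untreated plants around 10 days post-application. Compounds in surfactant-containing non-phytotoxic solvent were sprayed onto soil preemergence or onto one- to two-leaf seedlings (2–10 cm) postemergence.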

rice = test: Test B flood; assay type: in vivo, Oryza sativa; details: 250 g ai/ha, visual rating on 0 to 100 scale (0 no effect, 100 complete control), 13 to 15 days
Outline: (§2)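 Paddy-water application: seedlings at 2-leaf stage, flood depth 3 cm maintained for the test duration. Evaluation after 13–15 days in the greenhouse by eye relative to controls; 0–100 scale.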

ducksalad = test: Test B flood; assay type: in vivo, Heteranthera limosa; details: 250 g ai/ha, visual rating on 0 to 100 scale (0 no effect, 100 complete control), 13 to 15 days
Outline: as §2

nutsedge, yellow = test: Test C postemergence; assay type: in vivo, Cyperus esculentus; details: for Plant response rating (scale of 0 to 100 where 0 is no effect and 100 is complete control), Nutsedge, Yellow: Postemergence, 31 g ai/ha, visually evaluated after 13 to 15 days; for Nutsedge, Yellow plant response rating / Plant response rating, Nutsedge, Yellow: postemergence; for Nutsedge, Yellow plant response rating: 62 g ai/ha, scale 0 to 100
Outline: (§3)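 Greenhouse pot test: preemergence application onto freshly seeded loam/sand mix, postemergence application onto seedlings (1–4 leaves, 2–18 cm) in peat-vermiculite substrate. Responses scored visually 13 to 15 days later relative to controls, where 0 means no effect and 100 means complete control; a dash indicates no result.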

barnyardgrass [1] = test: Test A postemergence; assay type: in vivo, Echinochloa crus-galli
Outline: as §1

velvetleaf = test: Test C postemergence; assay type: in vivo, Abutilon theophrasti; details: for Velvetleaf plant response rating: scale 0 to 100
Description: (§4) Seeds of plant species selected from blackgrass (Alopecurus myosuroides), ryegrass, Italian (Italian ryegrass, Lolium multiflorum), wheat (winter wheat, Triticum aestivum), galium (catchweed bedstraw, Galium aparine), corn (Zea mays), crabgrass, large (large crabgrass, Digitaria sanguinalis), foxtail, giant (giant foxtail, Setaria faberii), johnsongrass (Sorghum halepense), lambsquarters (Chenopodium album), morningglory (Ipomoea coccinea), nutsedge, yellow (yellow nutsedge, Cyperus esculentus), pigweed (redroot pigweed, Amaranthus retroflexus), ragweed (common ragweed, Ambrosia elation), soybean (Glycine max), barnyardgrass (Echinochloa crus-galli), oilseed rape (Brassica napus), waterhemp (common waterhemp, Amaranthus rudis), oat, wild (wild oat, Avena fatua), kochia (Kochia scoparia), Surinam grass (Brachiaria decumbens), foxtail, green (green foxtail, Setaria viridis), goosegrass (Eleusine indica), bromegrass, downy (downy bromegrass, Bromus tectorum), nightshade (eastern black nightshade, Solanum ptycanthum), cocklebur (common cocklebur, Xanthium strumarium), cupgrass, woolly (woolly cupgrass, Eriochloa villosa), bermudagrass (Cynodon dactylon), sunflower, (common oilseed sunflower, Helianthus annuus), Russian thistle (Salsola kali), and velvetleaf (Abutilon theophrasti) were planted into a blend of loam soil and sand and treated preemergence with test chemicals formulated in a non-phytotoxic solvent mixture which included a surfactant.
(§5) At the same time, plants selected from these crop and weed species and also chickweed (common chickweed, Stellaria media), canarygrass (littleseed canarygrass, Phalaris minor), and deadnettle (henbit deadnettle, Lamium amplexicaule), were planted in pots containing Redi-Earth® planting medium (Scotts Company, 14111 Scottslawn Road, Marysville, Ohio 43041) comprising spaghnum peat moss, vermiculite, wetting agent and starter nutrients and treated with postemergence applications of test chemicals formulated in the same manner. Plants ranged in height from 2 to 18 cm (1- to 4-leaf stage) for postemergence treatments. Treated plants and controls were maintained in a greenhouse for 13 to 15 days, after which time all species were compared to controls and visually evaluated. Plant response ratings, summarized in Table C, are based on a scale of 0 to 100 where 0 is no effect and 100 is complete control. A dash (-) response means no test result.

lambsquarters = test: Test C postemergence; assay type: in vivo, Chenopodium album; details: for Plant response rating (scale of 0 to 100 where 0 is no effect and 100 is complete control), Lambsquarters: Postemergence, 31 g ai/ha, visually evaluated after 13 to 15 days; for Lambsquarters plant response rating / Plant response rating, Lambsquarters: postemergence; for Lambsquarters plant response rating: 62 g ai/ha, scale 0 to 100
Outline: as §3

oilseed rape = test: Test C postemergence; assay type: in vivo, Brassica napus; details: for Oilseed Rape plant response rating / Plant response rating, Oilseed Rape: postemergence; for Oilseed Rape plant response rating: 62 g ai/ha, scale 0 to 100
Outline: as §3

waterhemp = test: Test C preemergence; assay type: in vivo, Amaranthus rudis; details: for Waterhemp plant response rating: scale 0 to 100 (0 no effect, 100 complete control)
Description: as §4, §5

johnsongrass = test: Test C postemergence; assay type: in vivo, Sorghum halepense; details: for Plant response rating (scale of 0 to 100 where 0 is no effect and 100 is complete control), Johnsongrass: Postemergence, 31 g ai/ha, visually evaluated after 13 to 15 days; for Johnsongrass plant response rating / Plant response rating, Johnsongrass: postemergence; for Johnsongrass plant response rating: 62 g ai/ha, scale 0 to 100
Description: as §4, §5

kochia = test: Test C postemergence; assay type: in vivo, Kochia scoparia; details: for Plant response rating (scale of 0 to 100 where 0 is no effect and 100 is complete control), Kochia: Postemergence, 31 g ai/ha, visually evaluated after 13 to 15 days; for Kochia plant response rating / Plant response rating, Kochia: postemergence; for Kochia plant response rating: 62 g ai/ha, scale 0 to 100
Description: as §4, §5

oat, wild = test: Test C postemergence; assay type: in vivo, Avena fatua; details: for Plant response rating (scale of 0 to 100 where 0 is no effect and 100 is complete control), Oat, Wild: Postemergence, 31 g ai/ha, visually evaluated after 13 to 15 days; for Oat, Wild plant response rating / Plant response rating, Oat, Wild: postemergence; for Oat, Wild plant response rating: 62 g ai/ha, scale 0 to 100
Description: as §4, §5

barnyardgrass [2] = test: Test B flood; assay type: in vivo, Echinochloa crus-galli; details: 250 g ai/ha, visual rating on 0 to 100 scale (0 no effect, 100 complete control), 13 to 15 days
Outline: as §2

pigweed = test: Test C postemergence; assay type: in vivo, Amaranthus retroflexus; details: for Pigweed plant response rating / Plant response rating, Pigweed: postemergence; for Pigweed plant response rating: 62 g ai/ha, scale 0 to 100
Description: as §4, §5

[3] = 500 g ai/ha, visual injury after approx. 10 days, 0 to 100 scale (0 no effect, 100 complete control)
[4] = 250 g ai/ha, scale 0 to 100 (0 no effect, 100 complete control)
[5] = 125 g ai/ha, scale 0 to 100, 0 no effect, 100 complete control
[6] = Postemergence, 500 g ai/ha, 0 to 100 scale (0 no effect, 100 complete control)
[7] = postemergence, 125 g ai/ha, about 10 days, visual rating on 0 to 100 scale (0 no effect, 100 complete control)
[8] = Postemergence, 31 g ai/ha, visually evaluated after 13 to 15 days

CCCc1cc(C(=O)NCC)nn1Cc1cc(C(F)(F)F)nn1C [Compound 129]
Foxtail, Giant plant response rating (foxtail, giant; 125 g ai/ha, visual injury, 0 to 100 scale, approx. 10 days): 100
Foxtail, Giant plant response rating (foxtail, giant; [3]): 100
Plant response rating, Rice (rice): 40
Plant response rating, Ducksalad (ducksalad): 95
Plant response rating (scale of 0 to 100 where 0 is no effect and 100 is complete control), Nutsedge, Yellow (nutsedge, yellow): 0
Nutsedge, Yellow plant response rating (nutsedge, yellow): 0
Plant response rating, Nutsedge, Yellow (nutsedge, yellow; [4]): 5
Plant response rating, Nutsedge, Yellow (nutsedge, yellow; [5]): 5
Barnyardgrass plant response rating (barnyardgrass [1]; [6]): 90
Barnyardgrass plant response rating (barnyardgrass [1]; [7]): 90
Plant response rating (scale of 0 to 100 where 0 is no effect and 100 is complete control), Velvetleaf (velvetleaf; [8]): 25
Velvetleaf plant response rating (velvetleaf; postemergence, 62 g ai/ha): 65
Plant response rating (scale of 0 to 100 where 0 is no effect and 100 is complete control), Lambsquarters (lambsquarters): 55
Lambsquarters plant response rating (lambsquarters): 100
Plant response rating, Lambsquarters (lambsquarters; [4]): 98
Plant response rating, Lambsquarters (lambsquarters; [5]): 98
Plant response rating (scale of 0 to 100 where 0 is no effect and 100 is complete control), Oilseed Rape (oilseed rape; [8]): 60
Oilseed Rape plant response rating (oilseed rape): 60
Plant response rating, Oilseed Rape (oilseed rape; [4]): 70
Plant response rating, Oilseed Rape (oilseed rape; [5]): 65
Plant response rating (scale of 0 to 100), Waterhemp (waterhemp; Preemergence, 250 g ai/ha): 100
Waterhemp plant response rating (waterhemp; preemergence, 31 g ai/ha, visual rating, 13 to 15 days): 100
Waterhemp plant response rating (waterhemp; preemergence, 62 g ai/ha, 13 to 15 days): 100
Plant response rating, Waterhemp (waterhemp; preemergence, 125 g ai/ha, 13 to 15 days, scale 0 to 100, 0 = no effect, 100 = complete control): 100
Plant response rating (scale of 0 to 100 where 0 is no effect and 100 is complete control), Johnsongrass (johnsongrass): 5
Johnsongrass plant response rating (johnsongrass): 10
Plant response rating, Johnsongrass (johnsongrass; [4]): 10
Plant response rating, Johnsongrass (johnsongrass; [5]): 10
Plant response rating (scale of 0 to 100 where 0 is no effect and 100 is complete control), Kochia (kochia): 90
Kochia plant response rating (kochia): 90
Plant response rating, Kochia (kochia; [4]): 90
Plant response rating, Kochia (kochia; [5]): 90
Plant response rating (scale of 0 to 100 where 0 is no effect and 100 is complete control), Oat, Wild (oat, wild): 30
Oat, Wild plant response rating (oat, wild): 30
Plant response rating, Oat, Wild (oat, wild; [4]): 35
Plant response rating, Oat, Wild (oat, wild; [5]): 35
Plant response rating, Barnyardgrass (barnyardgrass [2]): 40
Plant response rating (scale of 0 to 100 where 0 is no effect and 100 is complete control), Pigweed (pigweed; [8]): 85
Pigweed plant response rating (pigweed): 95
Plant response rating, Pigweed (pigweed; [4]): 95
Plant response rating, Pigweed (pigweed; [5]): 100

CCc1cc(C(=O)NCC(F)(F)F)nn1Cc1cc(OC(F)F)nn1C [Compound 206]
Foxtail, Giant plant response rating (0 to 100 scale) (foxtail, giant; 125 g ai/ha, visual injury approx. 10 days after treatment): 0
Foxtail, Giant plant response rating (foxtail, giant; [3]): 100
Plant response rating, Rice (rice): 0
Plant response rating, Ducksalad (ducksalad): 0
Plant response rating (scale of 0 to 100 where 0 is no effect and 100 is complete control), Nutsedge, Yellow (nutsedge, yellow): 0
Nutsedge, Yellow plant response rating (nutsedge, yellow): 0
Plant response rating, Nutsedge, Yellow (nutsedge, yellow; [4]): 0
Plant response rating, Nutsedge, Yellow (nutsedge, yellow; [5]): 0
Barnyardgrass plant response rating (barnyardgrass [1]; [6]): 60
Barnyardgrass plant response rating (barnyardgrass [1]; [7]): 0
Plant response rating, Velvetleaf (velvetleaf; postemergence, 250 g ai/ha, scale 0 to 100 (0 no effect, 100 complete control)): 10
Velvetleaf plant response rating (velvetleaf; postemergence): 10
Plant response rating (scale of 0 to 100 where 0 is no effect and 100 is complete control), Lambsquarters (lambsquarters): 10
Lambsquarters plant response rating (lambsquarters): 10
Plant response rating, Lambsquarters (lambsquarters; [4]): 30
Plant response rating, Lambsquarters (lambsquarters; [5]): 15
Oilseed Rape plant response rating (oilseed rape): 5
Plant response rating, Oilseed Rape (oilseed rape; [4]): 50
Plant response rating, Oilseed Rape (oilseed rape; [5]): 5
Plant response rating (scale of 0 to 100 where 0 is no effect and 100 is complete control), Johnsongrass (johnsongrass): 0
Johnsongrass plant response rating (johnsongrass): 0
Plant response rating, Johnsongrass (johnsongrass; [4]): 5
Plant response rating, Johnsongrass (johnsongrass; [5]): 5
Plant response rating (scale of 0 to 100 where 0 is no effect and 100 is complete control), Kochia (kochia): 30
Kochia plant response rating (kochia): 35
Plant response rating, Kochia (kochia; [4]): 75
Plant response rating, Kochia (kochia; [5]): 45
Plant response rating (scale of 0 to 100 where 0 is no effect and 100 is complete control), Oat, Wild (oat, wild): 0
Oat, Wild plant response rating (oat, wild): 0
Plant response rating, Oat, Wild (oat, wild; [4]): 5
Plant response rating, Oat, Wild (oat, wild; [5]): 5
Plant response rating, Barnyardgrass (barnyardgrass [2]): 0
Pigweed plant response rating (pigweed): 25
Plant response rating, Pigweed (pigweed; [4]): 40
Plant response rating, Pigweed (pigweed; [5]): 40
